Data reported in PubChem BioAssay (NCI).
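96-well plates; 48 h exposure; 5 concentrations. Endpoints by linear interpolation between flanking doses. Not reached: highest tested concentration assigned. Abbreviation: GI50, concentration required for 50% inhibition of growth. TGI: total growth inhibition.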

Tests used:
Test in all cases: inhibition of tumour cell growth, NCI panel, 48 h
[1] = system: 786-0 renal
[2] = system: A498 renal
[3] = system: A549 NSCLC
[4] = system: ACHN renal
[5] = system: BT-549 breast
[6] = system: CAKI-1 renal
[7] = system: CCRF-CEM leukemia
[8] = system: COLO 205 colon
[9] = system: DU-145 prostate
[10] = system: EKVX NSCLC
[11] = system: HCC-2998 colon
[12] = system: HCT-116 colon
[13] = system: HCT-15 colon
[14] = system: HL-60(TB) leukemia
[15] = system: HOP-62 NSCLC
[16] = system: HOP-92 NSCLC
[17] = system: HS 578T breast
[18] = system: HT29 colon
[19] = system: IGROV1 ovarian
[20] = system: K-562 leukemia
[21] = system: KM12 colon
[22] = system: LOX IMVI melanoma
[23] = system: M14 melanoma
[24] = system: MALME-3M melanoma
[25] = system: MCF7 breast
[26] = system: MDA-MB-231 breast
[27] = system: MDA-MB-435
[28] = system: MOLT-4 leukemia
[29] = system: NCI-H226 lung
[30] = system: NCI-H23 lung
[31] = system: NCI-H460 lung
[32] = system: NCI-H522 lung
[33] = system: NCI/ADR-RES ovarian
[34] = system: OVCAR-3 ovarian
[35] = system: OVCAR-4 ovarian
[36] = system: OVCAR-5 ovarian
[37] = system: OVCAR-8 ovarian
[38] = system: PC-3 prostate
[39] = system: RPMI-8226 leukemia
[40] = system: RXF 393 renal
[41] = system: SF-268 CNS
[42] = system: SF-295 CNS
[43] = system: SF-539 CNS
[44] = system: SK-MEL-2 melanoma
[45] = system: SK-MEL-28 melanoma
[46] = system: SK-MEL-5 melanoma
[47] = system: SK-OV-3 ovarian
[48] = system: SN12C renal
[49] = system: SNB-19 CNS
[50] = system: SNB-75 CNS
[51] = system: SR leukemia
[52] = system: SW-620 colon
[53] = system: T-47D breast
[54] = system: TK-10 renal
[55] = system: U251 CNS
[56] = system: UACC-257 melanoma
[57] = system: UACC-62 melanoma
[58] = system: UO-31 renal

For CN(CCCCCl)P(=O)(OCCS(=O)(=O)CC(NC(=O)CCC(N)C(=O)O)C(=O)NC(C(=O)O)c1ccccc1)OCC1OC(n2ccc(N)nc2=O)C(O)C1O (stereo unspecified), the GI50 [1] was 32.2 µM, the TGI [1] was greater than 75 µM and the GI50 [2] was greater than 55.1 µM. The TGI [2] was greater than 75 µM, the GI50 [3] was 4.45 µM and the TGI [3] was greater than 75 µM. The GI50 [4] was 16.7 µM, the TGI [4] was greater than 75 µM and the GI50 [5] was 48.7 µM. The TGI [5] was greater than 75 µM, the GI50 [6] was 11 µM and the TGI [6] was greater than 75 µM. The GI50 [7] was 0.632 µM, the TGI [7] was greater than 75 µM and the GI50 [8] was 22 µM. It also gave a TGI [8] greater than 75 µM, a GI50 [9] of 9.1 µM and a TGI [9] greater than 75 µM. For the same molecule, the GI50 [10] was 67.4 µM, the TGI [10] was greater than 75 µM and the GI50 [11] was 28 µM. The TGI [11] was greater than 75 µM, the GI50 [12] was 5.22 µM and the TGI [12] was greater than 75 µM. The GI50 [13] was greater than 75 µM, the TGI [13] was greater than 75 µM and the GI50 [14] was 2.84 µM. The TGI [14] was greater than 30.3 µM, the GI50 [15] was 33.7 µM and the TGI [15] was greater than 75 µM. For the same molecule, the GI50 [16] was 4.8 µM, the TGI [16] was 74.1 µM and the GI50 [17] was greater than 36.8 µM. For the same molecule, the TGI [17] was greater than 75 µM, the GI50 [18] was 32.2 µM and the TGI [18] was greater than 75 µM. For the same molecule, the GI50 [19] was 3.31 µM, the TGI [19] was greater than 47.3 µM and the GI50 [20] was 7.36 µM. For the same molecule, the TGI [20] was greater than 75 µM, the GI50 [21] was 27.4 µM and the TGI [21] was greater than 75 µM. The GI50 [22] was 45.5 µM, the TGI [22] was greater than 75 µM and the GI50 [23] was 4.37 µM. It also gave a TGI [23] greater than 75 µM, a GI50 [24] of 12.6 µM and a TGI [24] greater than 75 µM. It also gave a GI50 [25] of 3.27 µM, a TGI [25] greater than 75 µM and a GI50 [26] greater than 75 µM. The TGI [26] was greater than 75 µM, the GI50 [27] was 28.3 µM and the TGI [27] was greater than 75 µM. For the same molecule, the GI50 [28] was 0.851 µM, the TGI [28] was greater than 31.8 µM and the GI50 [29] was greater than 70.7 µM. For the same molecule, the TGI [29] was greater than 75 µM, the GI50 [30] was 22.6 µM and the TGI [30] was greater than 75 µM. The GI50 [31] was 6.4 µM, the TGI [31] was greater than 75 µM and the GI50 [32] was 10.5 µM. The TGI [32] was greater than 75 µM, the GI50 [33] was 17.8 µM and the TGI [33] was greater than 75 µM. For the same molecule, the GI50 [34] was 33.7 µM, the TGI [34] was greater than 75 µM and the GI50 [35] was 47.5 µM. It also gave a TGI [35] greater than 75 µM, a GI50 [36] greater than 26.1 µM and a TGI [36] greater than 75 µM. It also gave a GI50 [37] of 5.4 µM, a TGI [37] greater than 75 µM and a GI50 [38] of 2.26 µM. The TGI [38] was greater than 75 µM, the GI50 [39] was 14.7 µM and the TGI [39] was greater than 68.8 µM. It also gave a GI50 [40] greater than 75 µM, a TGI [40] greater than 75 µM and a GI50 [41] of 49.8 µM. For the same molecule, the TGI [41] was greater than 75 µM, the GI50 [42] was greater than 58.8 µM and the TGI [42] was greater than 75 µM. For the same molecule, the GI50 [43] was greater than 75 µM, the TGI [43] was greater than 75 µM and the GI50 [44] was greater than 75 µM. For the same molecule, the TGI [44] was greater than 75 µM, the GI50 [45] was 26.2 µM and the TGI [45] was greater than 75 µM. The GI50 [46] was 20.4 µM, the TGI [46] was greater than 75 µM and the GI50 [47] was 57.1 µM. It also gave a TGI [47] greater than 75 µM, a GI50 [48] greater than 60 µM and a TGI [48] greater than 75 µM. For the same molecule, the GI50 [49] was 45.8 µM, the TGI [49] was greater than 75 µM and the GI50 [50] was 40.4 µM. The TGI [50] was 74.6 µM, the GI50 [51] was 1.39 µM and the TGI [51] was greater than 51.2 µM. The GI50 [52] was greater than 44.9 µM, the TGI [52] was greater than 75 µM and the GI50 [53] was 23.1 µM. It also gave a TGI [53] greater than 75 µM, a GI50 [54] of 73.4 µM and a TGI [54] greater than 75 µM. For the same molecule, the GI50 [55] was 29.9 µM, the TGI [55] was greater than 75 µM and the GI50 [56] was 21.1 µM. The TGI [56] was greater than 69.8 µM, the GI50 [57] was 35.8 µM and the TGI [57] was greater than 75 µM. For the same molecule, the GI50 [58] was 8.17 µM and the TGI [58] was greater than 59.7 µM.
